Assay type in all cases: functional
Common to all, as to design: scale not given: the % may be the effect or the level left

Assay [1] deals with Hepatovirus A. As to the kind of experiment: Antiviral activity against HAV in Vero cells assessed as plaque infectivity reduction at 10 ug/ml.
For assay [2], the system named is Human alphaherpesvirus 1. As to the kind of experiment: Antiviral activity against HSV1 in Vero cells assessed as plaque infectivity reduction at 10 ug/ml.
Assay [3] has as its system Human alphaherpesvirus 1. As to the kind of experiment: Antiviral activity against HSV1 in Vero cells assessed as plaque infectivity reduction at 20 ug/ml.
Assay [4] concerns Hepatovirus A. As to the kind of experiment: Antiviral activity against HAV in Vero cells assessed as plaque infectivity reduction at 20 ug/ml.

Take `O=C(NNC(=O)c1ccccc1)/C(=C/c1cn(-c2ccccc2)nc1-c1ccccc1)CC(=O)c1ccc(Cl)cc1`: the Activity in the assay on Hepatovirus A [1] worked out at 30%; with Human alphaherpesvirus 1 [2] it was 10%; in the assay on Human alphaherpesvirus 1 [3] it was 38%; in the assay on Hepatovirus A [4], 60%.
On the same counts, the results for `COc1ccc(C2=C/C(=C\c3cn(-c4ccccc4)nc3-c3ccccc3)C(=O)N2Cc2ccccc2)cc1` are 0%, 23%, 45% and 0%.
With `NNC(=O)/C(=C/c1cn(-c2ccccc2)nc1-c1ccccc1)CC(=O)c1ccc(Cl)cc1`, the Activity amounted to 20% with Hepatovirus A [1], 26% in the assay with Human alphaherpesvirus 1 [2], 42.8% in the assay on Human alphaherpesvirus 1 [3] and 30% with Hepatovirus A [4].
On the same counts, the results for `O=C1OC(c2ccc(Cl)cc2)=C/C1=C\c1cn(-c2ccccc2)nc1-c1ccccc1` are 40%, 0%, 0% and 60%.
The like results for `COc1ccc(-c2cc(Cc3cn(-c4ccccc4)nc3-c3ccccc3)c(=O)[nH]n2)cc1` were, in that order, 20%, 21%, 47% and 50%.
Turning to `NC(=O)NNC(=O)/C(=C/c1cn(-c2ccccc2)nc1-c1ccccc1)CC(=O)c1ccc(Cl)cc1`, the Activity with Hepatovirus A [1] came to 0%; with Human alphaherpesvirus 1 [2], 42.8%; in the assay on Human alphaherpesvirus 1 [3], 52%; with Hepatovirus A [4] it was 20%.
The like results for `O=C(C/C(=C\c1cn(-c2ccccc2)nc1-c1ccccc1)c1n[nH]c(=O)[nH]1)c1ccc(Cl)cc1` were, in that order, 0%, 0%, 14% and 10%.
On to `O=C(NCc1ccccc1)/C(=C/c1cn(-c2ccccc2)nc1-c1ccccc1)CC(=O)c1ccc(Cl)cc1`, for which the Activity is 40% with Hepatovirus A [1], 4% in the assay with Human alphaherpesvirus 1 [2], 23.8% in the assay with Human alphaherpesvirus 1 [3] and 60% in the assay on Hepatovirus A [4].
On the same counts, the results for `O=C(C/C(=C\c1cn(-c2ccccc2)nc1-c1ccccc1)c1n[nH]c(=S)[nH]1)c1ccc(Cl)cc1` are 40%, 0%, 38% and 50%.
On the same counts, the results for `O=C(C/C(=C\c1cn(-c2ccccc2)nc1-c1ccccc1)c1n[nH]c(=S)o1)c1ccc(Cl)cc1` are 0%, 14%, 45% and 0%.

(Values after ChEMBL document CHEMBL1147850, “Conversion of some 2(3H)-furanones bearing a pyrazolyl group into other heterocyclic systems with a study of their antiviral activity” (2007).)
